How the values were obtained:
Type in all cases: in vivo
[1] = system: barnyardgrass (Echinochloa crus-galli); assay: Test C flooded paddy test: barnyardgrass; conditions: scale 0 to 100 (0 no effect, 100 complete control)
Outline: (§1)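 Plants were grown to the 2-leaf stage, pots flooded to 3 cm above soil, and test compounds applied directly to the paddy water, with that depth held throughout. After 13 to 15 days in a greenhouse, injury was visually rated against controls on a 0 (no effect) to 100 (complete control) scale.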

[2] = system: barnyardgrass (Echinochloa crus-galli); assay: Test A pre-/postemergence: barnyardgrass; conditions: for Barnyardgrass plant response rating: Postemergence; for Plant response rating, Barnyardgrass: Preemergence
Outline: (§2)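 Pre: directed soil spray after planting in loam + sand. Post: same formulation (non-phytotoxic solvent + surfactant) on 1–2-leaf plants, 2–10 cm. Greenhouse ~10 d; visual injury 0–100 vs untreated.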

[3] = system: wheat (Triticum aestivum); assay: Test A pre-/postemergence: wheat; conditions: for Wheat plant response rating: Postemergence; for Plant response rating, Wheat: Preemergence
Outline: as §2

[4] = system: velvetleaf (Abutilon theophrasti); assay: Test A pre-/postemergence: velvetleaf; conditions: for Velvetleaf plant response rating: Postemergence; for Plant response rating, Velvetleaf: Preemergence
Outline: as §2

[5] = system: sedge, umbrella (small-flower umbrella sedge, Cyperus difformis); assay: Test C flooded paddy test: sedge, umbrella; conditions: scale 0 to 100 (0 no effect, 100 complete control)
Outline: as §1

rice (Oryza sativa) = assay: Test C flooded paddy test: rice; conditions: scale 0 to 100 (0 no effect, 100 complete control)
Outline: as §1

[6] = system: ducksalad (Heteranthera limosa); assay: Test C flooded paddy test: ducksalad; conditions: scale 0 to 100 (0 no effect, 100 complete control)
Outline: as §1

[7] = system: pigweed (Amaranthus retroflexus); assay: Test A pre-/postemergence: pigweed; conditions: for Pigweed plant response rating: Postemergence; for Plant response rating, Pigweed: Preemergence
Outline: as §2

[8] = system: foxtail, giant (giant foxtail, Setaria faberii); assay: Test A pre-/postemergence: foxtail, giant; conditions: for Foxtail, Giant plant response rating: Postemergence; for Plant response rating, Foxtail, Giant: Preemergence
Outline: as §2

[9] = system: crabgrass, large (large crabgrass, Digitaria sanguinalis); assay: Test A pre-/postemergence: crabgrass, large; conditions: for Crabgrass, Large plant response rating: Postemergence; for Plant response rating, Crabgrass, Large: Preemergence
Outline: as §2

[10] = system: morningglory (Ipomoea spp.); assay: Test A pre-/postemergence: morningglory; conditions: for Morningglory plant response rating: Postemergence; for Plant response rating, Morningglory: Preemergence
Outline: as §2

corn (Zea mays) = assay: Test A pre-/postemergence: corn; conditions: for Corn plant response rating: Postemergence; for Plant response rating, Corn: Preemergence
Outline: as §2

[11] = Flood (flooded paddy test), 125 g ai/ha, visual rating after 13 to 15 days
[12] = Flood (flooded paddy test), 250 g ai/ha, visual rating after 13 to 15 days
[13] = 125 g ai/ha, 0 to 100 scale, 0 is no effect, 100 is complete control
[14] = 500 g ai/ha, visual rating on 0 to 100 scale (0 no effect, 100 complete control), approximately ten days
[15] = 125 g ai/ha, 0 to 100 scale (0 no effect, 100 complete control)
[16] = 500 g ai/ha, 0 to 100 scale, 0 is no effect, 100 is complete control

COc1nn(-c2ccc(C(F)(F)F)cc2)nc1C(F)c1ccnc(C(F)(F)F)c1 (stereo not drawn) [Compound 80]
Plant response rating, Barnyardgrass [1, 11]: 0
Plant response rating, Barnyardgrass [1, 12]: 20
Plant response rating, Barnyardgrass ([1]; Flood, 31 g ai/ha): 0
Plant response rating, Barnyardgrass ([1]; Flood, 62 g ai/ha): 0
Barnyardgrass plant response rating [2, 13]: 30
Barnyardgrass plant response rating [2, 14]: 70
Plant response rating, Barnyardgrass [2, 15]: 20
Plant response rating, Barnyardgrass [2, 16]: 70
Wheat plant response rating [3, 13]: 20
Wheat plant response rating [3, 14]: 40
Plant response rating, Wheat [3, 15]: 0
Plant response rating, Wheat [3, 16]: 40
Velvetleaf plant response rating [4, 13]: 80
Velvetleaf plant response rating [4, 14]: 100
Plant response rating, Velvetleaf [4, 15]: 30
Plant response rating, Velvetleaf [4, 16]: 70
Plant response rating, Sedge, Umbrella [5, 11]: 0
Plant response rating, Sedge, Umbrella [5, 12]: 70
Plant response rating, Sedge, Umbrella ([5]; Flood, 31 g ai/ha): 0
Plant response rating, Sedge, Umbrella ([5]; Flood, 62 g ai/ha): 0
Plant response rating, Rice (rice (Oryza sativa); [11]): 0
Plant response rating, Rice (rice (Oryza sativa); [12]): 0
Plant response rating, Rice (rice (Oryza sativa); Flood, 31 g ai/ha): 0
Plant response rating, Rice (rice (Oryza sativa); Flood, 62 g ai/ha): 0
Plant response rating, Ducksalad [6, 11]: 0
Plant response rating, Ducksalad [6, 12]: 0
Plant response rating, Ducksalad ([6]; Flood, 31 g ai/ha): 0
Plant response rating, Ducksalad ([6]; Flood, 62 g ai/ha): 0
Pigweed plant response rating [7, 13]: 100
Pigweed plant response rating [7, 14]: 100
Plant response rating, Pigweed [7, 15]: 100
Plant response rating, Pigweed [7, 16]: 100
Foxtail, Giant plant response rating [8, 13]: 30
Foxtail, Giant plant response rating [8, 14]: 80
Plant response rating, Foxtail, Giant [8, 15]: 90
Plant response rating, Foxtail, Giant [8, 16]: 100
Crabgrass, Large plant response rating [9, 13]: 40
Crabgrass, Large plant response rating [9, 14]: 80
Plant response rating, Crabgrass, Large [9, 15]: 90
Plant response rating, Crabgrass, Large [9, 16]: 100
Morningglory plant response rating [10, 13]: 40
Morningglory plant response rating [10, 14]: 90
Plant response rating, Morningglory [10, 15]: 0
Plant response rating, Morningglory [10, 16]: 60
Corn plant response rating (corn (Zea mays); [13]): 20
Corn plant response rating (corn (Zea mays); [14]): 20
Plant response rating, Corn (corn (Zea mays); [15]): 0
Plant response rating, Corn (corn (Zea mays); [16]): 10

Cc1nn(-c2ccc(C(F)(F)F)cc2)nc1Oc1cccc(Cl)c1 [Compound 84]
Plant response rating, Barnyardgrass [1, 11]: 0
Plant response rating, Barnyardgrass [1, 12]: 10
Plant response rating, Barnyardgrass ([1]; Flood, 31 g ai/ha): 0
Plant response rating, Barnyardgrass ([1]; Flood, 62 g ai/ha): 0
Barnyardgrass plant response rating [2, 13]: 0
Barnyardgrass plant response rating [2, 14]: 10
Plant response rating, Barnyardgrass [2, 15]: 0
Plant response rating, Barnyardgrass [2, 16]: 0
Wheat plant response rating [3, 13]: 0
Wheat plant response rating [3, 14]: 0
Plant response rating, Wheat [3, 15]: 0
Plant response rating, Wheat [3, 16]: 0
Velvetleaf plant response rating [4, 13]: 10
Velvetleaf plant response rating [4, 14]: 20
Plant response rating, Velvetleaf [4, 15]: 0
Plant response rating, Velvetleaf [4, 16]: 0
Plant response rating, Sedge, Umbrella [5, 11]: 0
Plant response rating, Sedge, Umbrella [5, 12]: 20
Plant response rating, Sedge, Umbrella ([5]; Flood, 31 g ai/ha): 0
Plant response rating, Sedge, Umbrella ([5]; Flood, 62 g ai/ha): 0
Plant response rating, Rice (rice (Oryza sativa); [11]): 20
Plant response rating, Rice (rice (Oryza sativa); [12]): 20
Plant response rating, Rice (rice (Oryza sativa); Flood, 31 g ai/ha): 0
Plant response rating, Rice (rice (Oryza sativa); Flood, 62 g ai/ha): 0
Plant response rating, Ducksalad [6, 11]: 0
Plant response rating, Ducksalad [6, 12]: 40
Plant response rating, Ducksalad ([6]; Flood, 31 g ai/ha): 0
Plant response rating, Ducksalad ([6]; Flood, 62 g ai/ha): 0
Pigweed plant response rating [7, 13]: 40
Pigweed plant response rating [7, 14]: 90
Plant response rating, Pigweed [7, 15]: 0
Plant response rating, Pigweed [7, 16]: 50
Foxtail, Giant plant response rating [8, 13]: 10
Foxtail, Giant plant response rating [8, 14]: 20
Plant response rating, Foxtail, Giant [8, 15]: 0
Plant response rating, Foxtail, Giant [8, 16]: 30
Crabgrass, Large plant response rating [9, 13]: 10
Crabgrass, Large plant response rating [9, 14]: 50
Plant response rating, Crabgrass, Large [9, 15]: 0
Plant response rating, Crabgrass, Large [9, 16]: 60
Morningglory plant response rating [10, 13]: 30
Morningglory plant response rating [10, 14]: 30
Plant response rating, Morningglory [10, 15]: 0
Plant response rating, Morningglory [10, 16]: 0
Corn plant response rating (corn (Zea mays); [13]): 10
Corn plant response rating (corn (Zea mays); [14]): 30
Plant response rating, Corn (corn (Zea mays); [15]): 0
Plant response rating, Corn (corn (Zea mays); [16]): 0
